Measurements reported in PMC7027746 (Clinical Pharmacology in Drug Development, 2019).
Read-outs that look alike come from different tables or passages of the source.

Assays:
[1] = assay type: in vivo, human; conditions: for CL/F, geometric mean (% CV) / CL/F, mean (SD) / AUC / Cmax: healthy subjects
[2] = assay type: in vivo, human; conditions: for CL/F, geometric mean (% CV) / CL/F, mean (SD) / AUC / Cmax: healthy subjects; remark: listed apart in the source
[3] = Rifampin DDI arm: single-dose brigatinib plasma PK with and without rifampin; assay type: in vivo, human; conditions: for half-life / Cmax / AUC: human, plasma
[4] = tested on: healthy subjects; experiment: Safety and tolerability; assay type: in vivo, human
[5] = tested on: crizotinib‐naive patients with ALK‐positive NSCLC; conditions: cited from earlier work
[6] = cited from earlier work
[7] = healthy volunteers, cited from earlier work
[8] = single 180‐mg oral dose of [14C]‐brigatinib, healthy volunteers; cited from earlier work
[9] = tested on: CYP1A2; conditions: human liver microsomes, clinically relevant concentrations; ref data on file; cited from earlier work
[10] = tested on: CYP2B6; conditions: human liver microsomes, clinically relevant concentrations; ref data on file; cited from earlier work
[11] = tested on: CYP2C8; conditions: human liver microsomes, clinically relevant concentrations; ref data on file; cited from earlier work
[12] = tested on: CYP2C9; conditions: human liver microsomes, clinically relevant concentrations; ref data on file; cited from earlier work
[13] = tested on: CYP2C19; conditions: human liver microsomes, clinically relevant concentrations; ref data on file; cited from earlier work
[14] = tested on: CYP2D6; conditions: human liver microsomes, clinically relevant concentrations; ref data on file; cited from earlier work
[15] = tested on: CYP3A4/5; conditions: human liver microsomes, clinically relevant concentrations; ref data on file; cited from earlier work
[16] = tested on: CYP3A expression; conditions: human hepatocytes, clinically relevant concentrations, via activation of the pregnane X receptor; cited from earlier work
[17] = brigatinib 90 mg + gemfibrozil vs brigatinib alone
[18] = brigatinib + gemfibrozil compared with brigatinib alone
[19] = single 90 mg oral brigatinib + gemfibrozil 600 mg BID (test), n = 19
[20] = single 90 mg oral brigatinib alone (reference), n = 19
[21] = human, plasma, po, 90 mg, AUC0‐120, geometric mean (% CV), single 90 mg oral brigatinib alone (reference), n = 20
[22] = human, plasma, po, 90 mg, AUC0‐120, mean (SD), single 90 mg oral brigatinib alone (reference), n = 20
[23] = human, plasma, po, 90 mg, geometric mean (% CV), single 90 mg oral brigatinib alone (reference), n = 20
[24] = brigatinib 90 mg + itraconazole vs brigatinib alone
[25] = brigatinib + itraconazole compared with brigatinib alone
[26] = single 90 mg oral brigatinib + itraconazole 200 mg BID (test), n = 11
[27] = single 90 mg oral brigatinib alone (reference), n = 20
[28] = brigatinib 180 mg + rifampin vs brigatinib alone
[29] = brigatinib + rifampin compared with brigatinib alone
[30] = healthy subjects, single 180 mg oral brigatinib + rifampin 600 mg QD (test), n = 19
[31] = healthy subjects, single 180 mg oral brigatinib alone (reference), n = 20
[32] = brigatinib coadministered with gemfibrozil

Compound: COc1cc(N2CCC(N3CCN(C)CC3)CC2)ccc1Nc1ncc(Cl)c(Nc2ccccc2P(C)(C)=O)n1 [brigatinib, Brigatinib]
- AUC0‐120, geometric LS mean ratio (90%CI) (test vs reference) [1, 17]: 0.85 (0.80‐0.91)
- CL/F, geometric LS mean ratio (90%CI) (test vs reference) [1, 17]: 1.13 (1.06‐1.20)
- reduction in peak concentrations [1, 18]: approximately 40%
- reduction of geometric mean AUC0‐inf [1, 18]: 12%
- CL/F, geometric mean (% CV) [1, 19]: 15.7 (25.7) L/h
- CL/F, mean (SD) [1, 19]: 16.2 (4.3) L/h
- CL/F, geometric mean (% CV) [1, 20]: 13.1 (33.9) L/h
- CL/F, mean (SD) [1, 20]: 13.8 (4.6) L/h
- half-life ([1]; human, plasma, oral, 90 mg): 26.5 h
- Tmax ([1]; human, plasma, po, 90 mg): 2 h
- half-life ([1]; human, plasma, po, 90 mg): 26.7 h
- AUC [1, 21]: 6490 ng·h/mL
- AUC [1, 22]: 6840 ng·h/mL
- AUC ([1]; human, plasma, po, 90 mg, AUC0‐inf, geometric mean (% CV), single 90 mg oral brigatinib alone (reference), n = 19): 6880 ng·h/mL
- AUC ([1]; human, plasma, po, 90 mg, AUC0‐inf, mean (SD), single 90 mg oral brigatinib alone (reference), n = 19): 7230 ng·h/mL
- Cmax [1, 23]: 348 ng/mL
- AUC ([1]; human, plasma, po, AUC0‐120, geometric mean (% CV), single 90 mg oral brigatinib + gemfibrozil 600 mg BID (test), n = 19): 5340 ng·h/mL
- AUC ([1]; human, plasma, po, AUC0‐120, mean (SD), single 90 mg oral brigatinib + gemfibrozil 600 mg BID (test), n = 19): 5520 ng·h/mL
- AUC ([1]; human, plasma, po, AUC0‐inf, geometric mean (% CV), single 90 mg oral brigatinib + gemfibrozil 600 mg BID (test), n = 19): 5740 ng·h/mL
- AUC ([1]; human, plasma, po, AUC0‐inf, mean (SD), single 90 mg oral brigatinib + gemfibrozil 600 mg BID (test), n = 19): 5910 ng·h/mL
- Cmax ([1]; human, plasma, po, geometric mean (% CV), single 90 mg oral brigatinib + gemfibrozil 600 mg BID (test), n = 19): 199 ng/mL
- Cmax ([1]; human, plasma, po, mean (SD), single 90 mg oral brigatinib + gemfibrozil 600 mg BID (test), n = 19): 210 ng/mL
- CL/F, geometric LS mean ratio (90%CI) (test vs reference) [2, 24]: 0.50 (0.45‐0.54)
- Cmax, geometric LS mean ratio (90%CI) (test vs reference) [2, 24]: 1.21 (1.13‐1.30)
- increase of geometric mean AUC0‐120 [2, 25]: 82%
- increase of geometric mean AUC0‐inf [2, 25]: 101%
- increase of geometric mean Cmax [2, 25]: 21%
- prolongation in the geometric mean t½ [2, 25]: ~50%
- increase of systemic exposure ([2]; by itraconazole): 2 fold
- CL/F, geometric mean (% CV) [2, 26]: 6.67 (35.6) L/h
- CL/F, mean (SD) [2, 26]: 7.05 (2.54) L/h
- CL/F, geometric mean (% CV) [2, 27]: 14.0 (28.7) L/h
- CL/F, mean (SD) [2, 27]: 14.46 (3.84) L/h
- Tmax ([2]; human, plasma, po, 90 mg): 2.8 h
- half-life ([2]; human, plasma, po, 90 mg): 30.5 h
- AUC [2, 21]: 6140 ng·h/mL
- AUC [2, 22]: 6380 ng·h/mL
- AUC ([2]; human, plasma, po, 90 mg, AUC0‐inf, geometric mean (% CV), single 90 mg oral brigatinib alone (reference), n = 20): 6450 ng·h/mL
- AUC ([2]; human, plasma, po, 90 mg, AUC0‐inf, mean (SD), single 90 mg oral brigatinib alone (reference), n = 20): 6710 ng·h/mL
- Cmax [2, 23]: 331 ng/mL
- Cmax ([2]; human, plasma, po, geometric mean (% CV), single 90 mg oral brigatinib + itraconazole 200 mg BID (test), n = 20): 401 ng/mL
- Cmax ([2]; human, plasma, po, mean (SD), single 90 mg oral brigatinib + itraconazole 200 mg BID (test), n = 20): 429 ng/mL
- AUC0‐120, geometric LS mean ratio (90%CI) (test vs reference) [3, 28]: 0.20 (0.19‐0.22)
- CL/F, geometric LS mean ratio (90%CI) (test vs reference) [3, 28]: 5.11 (4.73‐5.51)
- decrease of geometric mean Cmax [3, 29]: 60%
- reduction of geometric mean AUC0‐inf [3, 29]: 80%
- CL/F, geometric mean (% CV) [3, 30]: 59.2 (25.8) L/h
- CL/F, mean (SD) [3, 30]: 61.0 (15.4) L/h
- tmax, median (range) [3, 30]: 2.0 (1.0‐4.0) h
- CL/F, geometric mean (% CV) [3, 31]: 11.5 (34.4) L/h
- CL/F, mean (SD) [3, 31]: 12.2 (4.3) L/h
- half-life ([3]; oral, 180 mg, geometric mean t½, brigatinib 180 mg in the presence of rifampin): 23.4 h
- Cmax ([3]; po, 180 mg, geometric mean (% CV), healthy subjects, single 180 mg oral brigatinib alone (reference), n = 20): 826 ng/mL
- AUC ([3]; po, AUC0‐120, geometric mean (% CV), healthy subjects, single 180 mg oral brigatinib + rifampin 600 mg QD (test), n = 19): 3020 ng·h/mL
- AUC ([3]; po, AUC0‐120, mean (SD), healthy subjects, single 180 mg oral brigatinib + rifampin 600 mg QD (test), n = 19): 3110 ng·h/mL
- AUC ([3]; po, AUC0‐inf, geometric mean (% CV), healthy subjects, single 180 mg oral brigatinib + rifampin 600 mg QD (test), n = 19): 3040 ng·h/mL
- AUC ([3]; po, AUC0‐inf, mean (SD), healthy subjects, single 180 mg oral brigatinib + rifampin 600 mg QD (test), n = 19): 3140 ng·h/mL
- Cmax ([3]; po, geometric mean (% CV), healthy subjects, single 180 mg oral brigatinib + rifampin 600 mg QD (test), n = 19): 334 ng/mL
- Cmax ([3]; po, mean (SD), healthy subjects, single 180 mg oral brigatinib + rifampin 600 mg QD (test), n = 19): 347 ng/mL
- half-life ([3]; po, t½, mean (SD), healthy subjects, single 180 mg oral brigatinib + rifampin 600 mg QD (test), n = 19): 23.7 h
- increase in CL/F ([3]; in the presence of rifampin): approximately 5 fold
- Any serious TEAE ([4]; Gemfibrozil DDI arm (n = 20)): 0 n (%)
- Any severe TEAE ([4]; Gemfibrozil DDI arm (n = 20)): 0 n (%)
- On‐study deaths ([4]; Gemfibrozil DDI arm (n = 20)): 0 n (%)
- Any TEAE ([4]; Gemfibrozil DDI arm (n = 20), brigatinib 90 mg alone and with gemfibrozil): 9 (45) n (%)
- AE leading to discontinuation ([4]; Gemfibrozil DDI arm (n = 20), emesis, treatment period 2): 1 n (%)
- AE leading to discontinuation ([4]; Itraconazole DDI arm (n = 20)): 0 n (%)
- Any serious TEAE ([4]; Itraconazole DDI arm (n = 20)): 0 n (%)
- Any severe TEAE ([4]; Itraconazole DDI arm (n = 20)): 0 n (%)
- On‐study deaths ([4]; Itraconazole DDI arm (n = 20)): 0 n (%)
- Any serious TEAE ([4]; Rifampin DDI arm (n = 20)): 0 n (%)
- Any severe TEAE ([4]; Rifampin DDI arm (n = 20)): 0 n (%)
- On‐study deaths ([4]; Rifampin DDI arm (n = 20)): 0 n (%)
- AE leading to discontinuation ([4]; Rifampin DDI arm (n = 20), elevated aspartate aminotransferase and alanine aminotransferase, treatment period 2): 1 n (%)
- TEAE incidence: cough [4, 32]: 20%
- TEAE incidence: throat irritation [4, 32]: 10%
- TEAE incidence: cough ([4]; brigatinib coadministered with rifampin): 10%
- hazard ratio, progression‐free survival ([5]; brigatinib versus crizotinib, P < .001): 0.49 [95%CI, 0.33‐0.74]
- 12‐month progression‐free survival ([5]; phase 3 trial, crizotinib‐naive patients with ALK‐positive NSCLC): 67%
- steady‐state apparent oral clearance (CL/F) ([6]; 180 mg once daily in patients with cancer): 12.7 L/h
- single‐ and repeat‐dose systemic exposures versus dose ([6]; patients with cancer, dose range 60‐240 mg once daily): increased dose‐proportionally
- decrease of peak concentration (Cmax) by a high‐fat meal ([7]; compared with fasted‐state administration): 13%
- median time to Cmax (tmax) ([7]; fasted state): 2 h
- median time to Cmax (tmax) ([7]; high‐fat meal): 5 h
- effect of a high‐fat meal on total systemic exposure [7]: no impact
- administered dose recovered in feces [8]: 65%
- administered dose recovered in urine [8]: 25%
- share of circulating radioactive components [8]: 92%
- inhibition of CYP1A2 activity [9]: did not inhibit
- inhibition of CYP2B6 activity [10]: did not inhibit
- inhibition of CYP2C8 activity [11]: did not inhibit
- inhibition of CYP2C9 activity [12]: did not inhibit
- inhibition of CYP2C19 activity [13]: did not inhibit
- inhibition of CYP2D6 activity [14]: did not inhibit
- inhibition of CYP3A4/5 activity [15]: did not inhibit
- induction of CYP3A expression [16]: induced CYP3A expression
